{"source": "PubChem BioAssay (NCI)", "test_in_all_cases": "NCI tumour cell line growth inhibition, 48 h", "key": {"CAKI-1 renal": {"tested_on": "CAKI-1 renal"}, "COLO 205 colon": {"tested_on": "COLO 205 colon"}, "DU-145 prostate": {"tested_on": "DU-145 prostate"}, "M14 melanoma": {"tested_on": "M14 melanoma"}, "MALME-3M melanoma": {"tested_on": "MALME-3M melanoma"}, "NCI-H226 lung": {"tested_on": "NCI-H226 lung"}, "NCI-H522 lung": {"tested_on": "NCI-H522 lung"}, "SF-268 CNS": {"tested_on": "SF-268 CNS"}, "SK-OV-3 ovarian": {"tested_on": "SK-OV-3 ovarian"}, "SNB-19 CNS": {"tested_on": "SNB-19 CNS"}, "TK-10 renal": {"tested_on": "TK-10 renal"}}, "note": "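Grown in 96-well plates, cells were treated for 48 hours with each compound at five concentrations. Insufficient inhibition: endpoint recorded as highest concentration tested. TGI marks complete inhibition of growth.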"}
{"molecule": "CC(=O)Oc1ccc2c(c1)c1c(OC(C)=O)c3ccccc3c(OC(C)=O)c1n2Cc1cccc(C)c1", "values": [{"measurement": "TGI", "setting": "CAKI-1 renal", "result": "> 100", "unit": "µM"}, {"measurement": "TGI", "setting": "COLO 205 colon", "result": "> 100", "unit": "µM"}, {"measurement": "TGI", "setting": "DU-145 prostate", "result": "> 100", "unit": "µM"}, {"measurement": "TGI", "setting": "M14 melanoma", "result": "> 100", "unit": "µM"}, {"measurement": "TGI", "setting": "MALME-3M melanoma", "result": "> 100", "unit": "µM"}, {"measurement": "TGI", "setting": "NCI-H226 lung", "result": "> 100", "unit": "µM"}, {"measurement": "TGI", "setting": "NCI-H522 lung", "result": 52.8, "unit": "µM"}, {"measurement": "TGI", "setting": "SF-268 CNS", "result": "> 100", "unit": "µM"}, {"measurement": "TGI", "setting": "SK-OV-3 ovarian", "result": 53.5, "unit": "µM"}, {"measurement": "TGI", "setting": "SNB-19 CNS", "result": "> 100", "unit": "µM"}, {"measurement": "TGI", "setting": "TK-10 renal", "result": "> 100", "unit": "µM"}]}
{"molecule": "COc1cc2c(cc1OC)C1Cc3ccccc3CN1CCC2", "note": "(stereo not given)", "values": [{"measurement": "TGI", "setting": "CAKI-1 renal", "result": "> 100", "unit": "µM"}, {"measurement": "TGI", "setting": "COLO 205 colon", "result": "> 100", "unit": "µM"}, {"measurement": "TGI", "setting": "DU-145 prostate", "result": "> 100", "unit": "µM"}, {"measurement": "TGI", "setting": "M14 melanoma", "result": "> 100", "unit": "µM"}, {"measurement": "TGI", "setting": "MALME-3M melanoma", "result": "> 100", "unit": "µM"}, {"measurement": "TGI", "setting": "NCI-H226 lung", "result": "> 100", "unit": "µM"}, {"measurement": "TGI", "setting": "NCI-H522 lung", "result": "> 100", "unit": "µM"}, {"measurement": "TGI", "setting": "SF-268 CNS", "result": "> 100", "unit": "µM"}, {"measurement": "TGI", "setting": "SK-OV-3 ovarian", "result": "> 100", "unit": "µM"}, {"measurement": "TGI", "setting": "SNB-19 CNS", "result": "> 100", "unit": "µM"}, {"measurement": "TGI", "setting": "TK-10 renal", "result": "> 100", "unit": "µM"}]}
{"molecule": "COc1cc(/C=C2\\C[C@H]3[C@@H]4CC=C5C[C@@H](N6CCCC6)CC[C@]5(C)[C@H]4CC[C@]3(C)[C@H]2OC(C)=O)cc(OC)c1OC", "values": [{"measurement": "TGI", "setting": "CAKI-1 renal", "result": 32.6, "unit": "µM"}, {"measurement": "TGI", "setting": "COLO 205 colon", "result": 25.6, "unit": "µM"}, {"measurement": "TGI", "setting": "DU-145 prostate", "result": 32.9, "unit": "µM"}, {"measurement": "TGI", "setting": "M14 melanoma", "result": 31.9, "unit": "µM"}, {"measurement": "TGI", "setting": "MALME-3M melanoma", "result": 38.1, "unit": "µM"}, {"measurement": "TGI", "setting": "NCI-H226 lung", "result": 48.3, "unit": "µM"}, {"measurement": "TGI", "setting": "NCI-H522 lung", "result": 30.4, "unit": "µM"}, {"measurement": "TGI", "setting": "SF-268 CNS", "result": 27.7, "unit": "µM"}, {"measurement": "TGI", "setting": "SK-OV-3 ovarian", "result": 29.1, "unit": "µM"}, {"measurement": "TGI", "setting": "SNB-19 CNS", "result": 34.2, "unit": "µM"}, {"measurement": "TGI", "setting": "TK-10 renal", "result": 34.8, "unit": "µM"}]}
{"molecule": "CSC1(SC)CCCCCCCCCCC1", "values": [{"measurement": "TGI", "setting": "CAKI-1 renal", "result": "> 100", "unit": "µM"}, {"measurement": "TGI", "setting": "COLO 205 colon", "result": 33.9, "unit": "µM"}, {"measurement": "TGI", "setting": "DU-145 prostate", "result": "> 100", "unit": "µM"}, {"measurement": "TGI", "setting": "M14 melanoma", "result": "> 100", "unit": "µM"}, {"measurement": "TGI", "setting": "MALME-3M melanoma", "result": 70.9, "unit": "µM"}, {"measurement": "TGI", "setting": "NCI-H226 lung", "result": "> 100", "unit": "µM"}, {"measurement": "TGI", "setting": "NCI-H522 lung", "result": 34.9, "unit": "µM"}, {"measurement": "TGI", "setting": "SF-268 CNS", "result": "> 100", "unit": "µM"}, {"measurement": "TGI", "setting": "SK-OV-3 ovarian", "result": "> 100", "unit": "µM"}, {"measurement": "TGI", "setting": "SNB-19 CNS", "result": "> 100", "unit": "µM"}, {"measurement": "TGI", "setting": "TK-10 renal", "result": "> 100", "unit": "µM"}]}
{"molecule": "COc1ccc([C@@]23CCC(=O)C[C@@H]2N(C)CC3)cc1OC", "values": [{"measurement": "TGI", "setting": "CAKI-1 renal", "result": "> 100", "unit": "µM"}, {"measurement": "TGI", "setting": "COLO 205 colon", "result": "> 100", "unit": "µM"}, {"measurement": "TGI", "setting": "DU-145 prostate", "result": "> 100", "unit": "µM"}, {"measurement": "TGI", "setting": "M14 melanoma", "result": "> 100", "unit": "µM"}, {"measurement": "TGI", "setting": "MALME-3M melanoma", "result": "> 100", "unit": "µM"}, {"measurement": "TGI", "setting": "NCI-H226 lung", "result": "> 100", "unit": "µM"}, {"measurement": "TGI", "setting": "NCI-H522 lung", "result": "> 100", "unit": "µM"}, {"measurement": "TGI", "setting": "SF-268 CNS", "result": "> 100", "unit": "µM"}, {"measurement": "TGI", "setting": "SK-OV-3 ovarian", "result": "> 100", "unit": "µM"}, {"measurement": "TGI", "setting": "SNB-19 CNS", "result": "> 100", "unit": "µM"}, {"measurement": "TGI", "setting": "TK-10 renal", "result": "> 100", "unit": "µM"}]}
